Measurements: ChEMBL document CHEMBL3045859, “Search for monoglyceride lipase inhibitors: synthesis and screening of arylthioamides derivatives” (Med Chem Res, 2009)

Experiments:
[1] = target: T1, Fatty-acid amide hydrolase 1 (Homo sapiens, UniProt O00519); assay: Inhibition of Homo sapiens (human) recombinant fatty acid amide hydrolase assessed as inhibition of [3H]-AEA hydrolysis after 10 min by liquid scintillation counting
T1 sequence (O00519 whole entry): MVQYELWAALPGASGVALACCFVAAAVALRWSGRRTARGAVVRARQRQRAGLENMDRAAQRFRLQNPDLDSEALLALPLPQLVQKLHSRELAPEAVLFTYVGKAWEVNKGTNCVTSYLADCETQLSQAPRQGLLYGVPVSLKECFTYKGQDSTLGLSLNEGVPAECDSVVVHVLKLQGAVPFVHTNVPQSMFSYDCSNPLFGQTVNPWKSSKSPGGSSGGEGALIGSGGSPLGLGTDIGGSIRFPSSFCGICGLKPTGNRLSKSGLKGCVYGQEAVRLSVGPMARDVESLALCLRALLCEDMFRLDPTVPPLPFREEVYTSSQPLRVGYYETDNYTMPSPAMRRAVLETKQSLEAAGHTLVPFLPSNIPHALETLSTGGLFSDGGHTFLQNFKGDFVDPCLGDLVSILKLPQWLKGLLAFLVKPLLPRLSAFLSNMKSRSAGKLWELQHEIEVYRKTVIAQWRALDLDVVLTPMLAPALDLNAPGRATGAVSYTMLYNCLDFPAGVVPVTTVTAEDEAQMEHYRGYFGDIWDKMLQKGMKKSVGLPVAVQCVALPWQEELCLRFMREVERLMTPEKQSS

[2] = target: T2, Monoglyceride lipase (Homo sapiens, UniProt Q99685); assay: Inhibition of Homo sapiens (human) recombinant monoacylglycerol lipase assessed as inhibition of [3H]-2-oleolylglycerol hydrolysis after 10 min by liquid scintillation counting
T2 sequence (Q99685 whole entry): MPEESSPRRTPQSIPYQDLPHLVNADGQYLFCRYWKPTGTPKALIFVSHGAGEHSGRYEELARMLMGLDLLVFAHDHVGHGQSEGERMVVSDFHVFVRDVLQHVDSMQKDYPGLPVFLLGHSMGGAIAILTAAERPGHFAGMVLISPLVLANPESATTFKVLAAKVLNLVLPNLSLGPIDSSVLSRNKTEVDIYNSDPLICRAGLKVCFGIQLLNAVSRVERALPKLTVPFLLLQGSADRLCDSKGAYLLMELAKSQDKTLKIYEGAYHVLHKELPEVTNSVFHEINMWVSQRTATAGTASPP

| SMILES | IC50 [1] | IC50 [2] |
| --- | --- | --- |
| S=C(Cc1ccccc1)N1CCOCC1 | > 1000 µM | > 1000 µM |
| COc1ccc(CC(=S)N2CCOCC2)cc1OC | > 1000 µM | > 1000 µM |
| Cc1ccc(CC(=S)N2CCOCC2)cc1 | 49 µM | 24 µM |
| COC(=O)c1ccc(C(=S)N2CCOCC2)cc1 | > 1000 µM | 30.9 µM |
| S=C(c1ccc(-c2ccccc2)cc1)N1CCOCC1 | 30.9 µM | 19.5 µM |
| S=C(Cc1ccc(Cl)cc1)N1CCOCC1 | 77.6 µM | 14.8 µM |
| S=C(Cc1ccc(-c2ccccc2)cc1)N1CCOCC1 | 30.9 µM | 5.75 µM |
| Cc1cccc(C(=S)N2CCCCC2)c1 | 61.7 µM | > 1000 µM |
| Oc1ccc(C(=S)NCCc2ccccc2)cc1O | 724 µM | 525 µM |
| COC(=O)c1ccc(C(=S)NCCc2ccccc2)cc1 | > 1000 µM | 26.3 µM |
| S=C(NCCc1ccccc1)c1ccc(Br)cc1 | > 1000 µM | 97.7 µM |
| S=C(NCCc1ccccc1)c1ccc(Cl)cc1 | 407 µM | 437 µM |
| S=C(NCCc1ccccc1)c1ccccc1Cl | > 1000 µM | 166 µM |
| S=C(NCCc1ccccc1)c1ccc(Cl)cc1Cl | > 1000 µM | 79.4 µM |
| S=C(NCCc1ccccc1)c1ccc(Cl)c(Cl)c1 | 53.7 µM | 75.9 µM |
| Fc1ccc(C(=S)NCCc2ccccc2)cc1 | > 1000 µM | > 1000 µM |
| S=C(Cc1ccc(-c2ccccc2)cc1)NCCc1ccccc1 | 724 µM | 537 µM |
| O=C(c1ccc(-c2ccccc2)cc1)N1CCOCC1 | > 1000 µM | > 1000 µM |
| Clc1ccccc1CN1CCOCC1 | > 1000 µM | > 1000 µM |

| SMILES | IC50 [1] | IC50 [2] |
| --- | --- | --- |
| S=C(c1ccccc1Cl)N1CCOCC1 | > 1000 µM | 20 µM |
| S=C(c1ccc(C2CCCCC2)cc1)N1CCOCC1 | > 1000 µM | > 1000 µM |
| O=[N+]([O-])c1cccc(C(=S)N2CCOCC2)c1 | 245 µM | 9.55 µM |
| S=C(Cc1ccccc1Cl)N1CCOCC1 | > 1000 µM | 24.5 µM |
| S=C(c1ccccc1)N1CCCCC1 | > 1000 µM | > 1000 µM |
| Clc1ccc(CN2CCOCC2)cc1 [4-(4-CHLOROBENZYL)MORPHOLINE] | > 1000 µM | > 1000 µM |
| c1ccc(-c2ccc(CN3CCOCC3)cc2)cc1 [4-(BIPHENYL-4-YLMETHYL)MORPHOLINE] | > 1000 µM | > 1000 µM |
| S=C(c1ccc(Cl)cc1Cl)N1CCOCC1 [(2,4-DICHLOROPHENYL)(MORPHOLINO)METHANETHIONE] | > 1000 µM | > 1000 µM |
| O=C(c1ccccc1Cl)N1CCOCC1 [(2-CHLOROPHENYL)(MORPHOLINO)METHANONE] | > 1000 µM | > 1000 µM |
| Oc1ccccc1C(=S)N1CCOCC1 [(2-HYDROXYPHENYL)(MORPHOLINO)METHANETHIONE] | > 1000 µM | 60.3 µM |
| S=C(c1ccc(Cl)c(Cl)c1)N1CCOCC1 [(3,4-DICHLOROPHENYL)(MORPHOLINO)METHANETHIONE] | > 1000 µM | > 1000 µM |
| S=C(c1cccc(Cl)c1)N1CCOCC1 [(3-CHLOROPHENYL)(MORPHOLINO)METHANETHIONE] | > 1000 µM | > 1000 µM |
| CN(C)c1ccc(C(=S)N2CCOCC2)cc1 [(4-(DIMETHYLAMINO)PHENYL)(MORPHOLINO)METHANETHIONE] | > 1000 µM | > 1000 µM |
| S=C(c1ccc(Br)cc1)N1CCOCC1 [(4-BROMOPHENYL)(MORPHOLINO)METHANETHIONE] | > 1000 µM | 31.6 µM |
| S=C(c1ccc(Cl)cc1)N1CCOCC1 [(4-CHLOROPHENYL)(MORPHOLINO)METHANETHIONE] | 302 µM | 77.6 µM |
| O=C(c1ccc(Cl)cc1)N1CCOCC1 [(4-CHLOROPHENYL)(MORPHOLINO)METHANONE] | > 1000 µM | > 1000 µM |
| Oc1ccc(C(=S)N2CCOCC2)cc1 [(4-HYDROXYPHENYL)(MORPHOLINO)METHANETHIONE] | 562 µM | 204 µM |
| S=C(c1ccccc1)N1CCOCC1 [MORPHOLINO(PHENYL)METHANETHIONE] | > 1000 µM | > 1000 µM |
| S=C(NCCc1ccccc1)c1ccccc1 [N-PHENETHYLBENZOTHIOAMIDE] | > 1000 µM | > 1000 µM |
